Read-outs that look alike come from different tables or passages of the source. Positions of bridges follow the written chain, without caps; N, C: chain ends. Non-standard residues stand in square brackets, D forms with d. Residues, ends and D or L forms follow the SMILES beside them. ξ: configuration not given here. Phe(4-CONH2) = NC(=O)c1ccc(C[C@H](N)C(=O)O)cc1; 1Nal = N[C@@H](Cc1cccc2ccccc12)C(=O)O; Bta = N[C@@H](Cc1csc2ccccc12)C(=O)O; Hyp = O=C(O)[C@@H]1C[C@@H](O)CN1; NMeF = CN[C@@H](Cc1ccccc1)C(=O)O; AllylGly = C=CC[C@H](N)C(=O)O; NMehSer = CN[C@@H](CCO)C(=O)O; NMeNle = CCCC[C@H](NC)C(=O)O; NMeS = CN[C@@H](CO)C(=O)O; NMeA = CN[C@@H](C)C(=O)O; Dab = NCC[C@H](N)C(=O)O; Dap = NC[C@H](N)C(=O)O; ξC = NC(CS)C(=O)O; Sar = CNCC(=O)O

This is an account of results in patent US9850283B2, “Macrocyclic inhibitors of the PD-1/PD-L1 and CD80(B7-1)/PD-L1 protein/protein interactions” (BRISTOL-MYERS SQUIBB COMPANY, priority 2013, dated 2017).

For one assay, the target named is T1, Human PD-L1/PD-1 (Homo sapiens, UniProt Q9NZQ7).
T1 construct: made in house; host or cells: HEK293T
Briefly: HTRF PD-1-Ig/PD-L1-His binding assay (human PD-L1). The conditions noted are these: cluster symbol; read-out: HTRF IC50 cluster. In short, it runs like this:
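Steps: truncated PD-1-Ig and PD-L1-His fusions are incubated in dPBS containing 0.1% (w/v) BSA and 0.05% (v/v) Tween-20. Detection antibodies are then added (Eu cryptate anti-Ig at 1 nM final, APC anti-His at 20 nM final), and time-resolved FRET is measured.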
On the technique in general: In TR-FRET formats the signal depends on donor and acceptor labels being close together.

In assay [1] the target is T2, LK35.2-hPD-L1 cells / PE-labeled PD-1-Ig (Homo sapiens, UniProt Q9NZQ7).
T2 construct: expressed in transfected cells; host or cells: LK35.2 mouse B cell line
Briefly: LK35.2-hPD-L1 cell binding high-content screening assay. The assay is classed as cell-based. The conditions noted are these: cluster symbol, read-out: CBA IC50 cluster. In short, it runs like this: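 Binding of PE-conjugated human PD-1-Ig (1 nM final) to human PD-L1 stably expressed on a mouse B-cell line (LK35.2) was measured by high-content imaging after washes. Compound and labeled PD-1-Ig were co-incubated 1 h at 37 °C with cells in RPMI/10% FCS.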

Where [2] appears, read: cell binding assay, cell line not given.

T1 sequence (Q9NZQ7 with tags, fused parts or gaps): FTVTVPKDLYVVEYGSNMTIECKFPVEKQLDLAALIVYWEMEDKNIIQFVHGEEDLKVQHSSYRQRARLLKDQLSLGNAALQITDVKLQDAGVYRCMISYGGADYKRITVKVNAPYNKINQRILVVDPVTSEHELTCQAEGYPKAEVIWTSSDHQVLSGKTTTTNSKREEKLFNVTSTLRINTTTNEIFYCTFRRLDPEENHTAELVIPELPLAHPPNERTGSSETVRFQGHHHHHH
T2 sequence (Q9NZQ7 19-290): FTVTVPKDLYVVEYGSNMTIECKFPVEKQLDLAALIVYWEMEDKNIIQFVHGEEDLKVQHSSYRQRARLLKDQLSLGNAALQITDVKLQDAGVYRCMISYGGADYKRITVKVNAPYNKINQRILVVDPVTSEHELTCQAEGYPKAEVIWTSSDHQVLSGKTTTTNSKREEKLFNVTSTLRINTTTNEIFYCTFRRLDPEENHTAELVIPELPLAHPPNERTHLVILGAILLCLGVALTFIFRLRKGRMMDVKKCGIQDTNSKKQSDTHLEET

Usually IC50 stands for the concentration needed to halve the response being measured. `CCCC[C@H]1C(=O)N(C)[C@@H](CO)C(=O)N[C@@H](CCCNC(=N)N)C(=O)NC(C(=O)NCC(N)=O)CSCC(=O)N[C@@H](Cc2ccc(O)cc2)C(=O)N(C)[C@@H](C)C(=O)N[C@@H](CC(N)=O)C(=O)N2CCC[C@H]2C(=O)N[C@@H](Cc2cnc[nH]2)C(=O)N[C@@H](CC(C)C)C(=O)N2C[C@H](O)C[C@H]2C(=O)N[C@@H](Cc2c[nH]c3ccccc23)C(=O)N[C@@H](CO)C(=O)N[C@@H](Cc2csc3ccccc23)C(=O)N1C` (some centres unmarked) [Example 9033] ({CH2CO}-Y[NMeA]NPHL[Hyp]WS[Bta][NMeNle][NMeS]R[ξC]G-NH2; thioether N-14): the IC50 on Human PD-L1/PD-1 fell in the range of 6.76 to 30.3 nM; in assay [1] (setting [2]) it was 0.158 to 4.71 nM.
The like results for `CCCC[C@H]1C(=O)N(C)[C@@H](CCCC)C(=O)N[C@@H](C)C(=O)N[C@H](C(=O)NCC(N)=O)CSCC(=O)N[C@@H](Cc2ccc(O)cc2)C(=O)N(C)[C@@H](C)C(=O)N[C@@H](CCN)C(=O)N2CCC[C@H]2C(=O)N[C@@H](Cc2c[nH]cn2)C(=O)N[C@@H](CCC(=O)O)C(=O)N2C[C@H](O)C[C@H]2C(=O)N[C@@H](Cc2c[nH]c3ccccc23)C(=O)N[C@@H](CO)C(=O)N[C@@H](Cc2c[nH]c3ccccc23)C(=O)N1C` [Example 5087] ({CH2CO}-Y[NMeA][Dab]PHE[Hyp]WSW[NMeNle][NMeNle]ACG-NH2; thioether N-14) were, in that order, 0.385 to 6.74 nM and 4.78 to 72.9 nM.
For `C=CC[C@@H]1NC(=O)[C@H](Cc2c[nH]c3ccccc23)NC(=O)[C@@H]2CCCN2C(=O)[C@H](CC(C)C)NC(=O)[C@H](Cc2cnc[nH]2)NC(=O)[C@@H]2CCCN2C(=O)[C@H](CC(N)=O)NC(=O)[C@H](C)N(C)C(=O)[C@H](Cc2cnc[nH]2)NC(=O)CSC[C@@H](C(=O)NCC(N)=O)NC(=O)[C@H](CC=C)NC(=O)[C@H](CCCC)N(C)C(=O)[C@H](CCCC)N(C)C(=O)[C@H](Cc2c[nH]c3ccccc23)NC1=O` [Example 7021] ({CH2CO}-H[NMeA]NPHLPW[AllylGly]W[NMeNle][NMeNle][AllylGly]CG-NH2; thioether N-14), the IC50 at Human PD-L1/PD-1 was more than 30.5 nM; in assay [1] (setting [2]) it was more than 74.3 nM.
Take `CCCC[C@H]1C(=O)N(C)[C@@H](CCCC)C(=O)N[C@@H](CCCNC(=N)N)C(=O)N[C@H](C(=O)NCC(N)=O)CSCC(=O)N[C@@H](Cc2ccc(C(N)=O)cc2)C(=O)N(C)[C@@H](C)C(=O)N[C@@H](CC(N)=O)C(=O)N2CCC[C@H]2C(=O)N[C@@H](Cc2cnc[nH]2)C(=O)N[C@@H](CC(C)C)C(=O)N2C[C@H](O)C[C@H]2C(=O)N[C@@H](Cc2c[nH]c3ccccc23)C(=O)N[C@@H](CO)C(=O)N[C@@H](Cc2c[nH]c3ccccc23)C(=O)N1C` [Example 7050] ({CH2CO}-[Phe(4-CONH2)][NMeA]NPHL[Hyp]WSW[NMeNle][NMeNle]RCG-NH2; thioether N-14): the IC50 at Human PD-L1/PD-1 fell in the range of 0.385 to 6.74 nM; in assay [1] (setting [2]), 4.78 to 72.9 nM.
The like results for `CCCC[C@H]1C(=O)N(C)CC(=O)N[C@@H](CC(=O)O)C(=O)N[C@@H](Cc2ccc(O)cc2)C(=O)N(C)[C@@H](Cc2ccccc2)C(=O)N[C@@H](Cc2ccc(O)cc2)C(=O)N(C)CC(=O)N[C@@H](Cc2c[nH]c3ccccc23)C(=O)N[C@@H](Cc2ccc(O)cc2)C(=O)N[C@@H](CC(C)C)C(=O)N[C@H](C(=O)NCC(N)=O)CSCC(=O)N[C@@H](Cc2ccccc2)C(=O)N(C)[C@@H](Cc2ccccc2)C(=O)N1C` [Example 3503] (HELM PEPTIDE1{[O=C(C[*:3])[*:2]].F.[meF].[CCCC[C@@H](C(=O)[*:2])N(C)[*:1]].[Sar].D.Y.[meF].Y.[Sar].W.Y.L.C.G.[am]}$PEPTIDE1,PEPTIDE1,1:R3-14:R3$$$V2.0) were, in that order, more than 30.5 nM and more than 74.3 nM.
The like results for `CCCC[C@H]1C(=O)N(C)CC(=O)N[C@@H](CC(=O)O)C(=O)N[C@@H](C(C)C)C(=O)N(C)[C@@H](Cc2ccccc2)C(=O)N[C@@H](Cc2ccc(O)cc2)C(=O)N(C)CC(=O)N[C@H](Cc2c[nH]c3ccccc23)C(=O)N[C@@H](Cc2ccc(O)cc2)C(=O)N[C@@H](CC(C)C)C(=O)N[C@H](C(=O)NCC(N)=O)CSCC(=O)N[C@@H](Cc2ccccc2)C(=O)N(C)[C@@H](Cc2ccccc2)C(=O)N1C` [Example 3563] (HELM PEPTIDE1{[O=C(C[*:3])[*:2]].F.[meF].[CCCC[C@@H](C(=O)[*:2])N(C)[*:1]].[Sar].D.V.[meF].Y.[Sar].[dW].Y.L.C.G.[am]}$PEPTIDE1,PEPTIDE1,1:R3-14:R3$$$V2.0) were, in that order, more than 30.5 nM and more than 74.3 nM.
Turning to `CCCC[C@H]1C(=O)N(C)[C@@H](CCOC)C(=O)N[C@@H](CCCNC(=N)N)C(=O)N[C@H](C(=O)NCC(N)=O)CSCC(=O)N[C@@H](Cc2ccc(O)cc2)C(=O)N(C)[C@@H](C)C(=O)N[C@@H](CC(=O)O)C(=O)N2CCC[C@H]2C(=O)N[C@@H](Cc2cnc[nH]2)C(=O)N[C@@H](CC(C)C)C(=O)N2CCC[C@@H]2C(=O)N[C@@H](Cc2c[nH]c3ccccc23)C(=O)N[C@@H](CO)C(=O)N[C@@H](Cc2c[nH]c3ccccc23)C(=O)N1C` [Example 9005] ({CH2CO}-Y[NMeA]DPHL[dP]WSW[NMeNle][NMehSer](Me)RCG-NH2; thioether N-14), the concentration for half-maximal inhibition (IC50) on Human PD-L1/PD-1 was 0.385 to 6.74 nM; in assay [1] (setting [2]), 0.158 to 4.71 nM.
`CCCC[C@H]1C(=O)N(C)CC(=O)N[C@@H](CC(=O)O)C(=O)N[C@@H](C(C)C)C(=O)N(C)[C@@H](Cc2ccccc2)C(=O)N[C@@H](Cc2ccc(O)cc2)C(=O)N(C)CC(=O)N[C@@H](Cc2cccc3ccccc23)C(=O)N[C@@H](Cc2ccc(O)cc2)C(=O)N[C@@H](CC(C)C)C(=O)N[C@H](C(=O)NCC(N)=O)CSCC(=O)N[C@@H](Cc2ccccc2)C(=O)N(C)[C@@H](Cc2ccccc2)C(=O)N1C` [Example 3515] ({CH2CO}-F[NMeF][NMeNle][Sar]DV[NMeF]Y[Sar][1Nal]YLCG-NH2; thioether N-13): the 50% inhibitory concentration (IC50) at Human PD-L1/PD-1 lay within 6.76 to 30.3 nM; in assay [1] (setting [2]) it was 4.78 to 72.9 nM.
Consider `CCCC[C@H]1C(=O)N2CCC[C@@H]2C(=O)N[C@@H](CCC(=O)O)C(=O)N[C@@H](C(C)C)C(=O)N(C)[C@@H](Cc2ccccc2)C(=O)N[C@@H](CN)C(=O)N2CCC[C@@H]2C(=O)N[C@@H](Cc2c[nH]c3ccccc23)C(=O)N[C@@H](Cc2ccc(O)cc2)C(=O)N[C@@H](CC(C)C)C(=O)N[C@H](C(=O)NCC(N)=O)CSCC(=O)N[C@@H](Cc2ccccc2)C(=O)N(C)[C@@H](Cc2ccccc2)C(=O)N1C` [Example 3191] ({CH2CO}-F[NMeF][NMeNle][dP]EV[NMeF][Dap][dP]WYLCG-NH2; thioether N-13), for which the IC50 on Human PD-L1/PD-1 was 0.385 to 6.74 nM; in assay [1] (cell line of CBA not given (LK35.2-hPD-L1 or 293T-hPD-L1)), 4.78 to 72.9 nM.
For `CCCC[C@H]1C(=O)N(C)[C@@H](CCCC)C(=O)N[C@@H](CCCNC(=N)N)C(=O)N[C@H](C(=O)NCC(N)=O)CSCC(=O)N[C@@H](Cc2ccccc2)C(=O)N(C)[C@@H](C)C(=O)N[C@@H](CC(N)=O)C(=O)N2CCC[C@H]2C(=O)N[C@@H](Cc2cnc[nH]2)C(=O)N[C@@H](CC(C)C)C(=O)N(C)CC(=O)N[C@@H](Cc2c[nH]c3ccccc23)C(=O)N[C@@H](CCN)C(=O)N[C@@H](Cc2c[nH]c3ccccc23)C(=O)N1C` [Example 5001] ({CH2CO}-F[NMeA]NPHL[Sar]W[Dab]W[NMeNle][NMeNle]RCG-NH2; thioether N-14), the IC50 at Human PD-L1/PD-1 was 0.385 to 6.74 nM; in assay [1] (setting [2]), 4.78 to 72.9 nM.
